Data from ChEMBL document CHEMBL4304764, “Identification of a RIP1 Kinase Inhibitor Clinical Candidate (GSK3145095) for the Treatment of Pancreatic Cancer” (ACS Med Chem Lett, 2019).
One block for each compound: values may come before it.

Key:
[1] = Clearance in rat at 1 mg/kg, iv; type: ADME, organism-based; settings: in vivo
[2] = Metabolic stability in human hepatocytes in presence of NADPH; type: ADME, cell-based, Hepatocyte
[3] = AUC in monkey at […], po; type: ADME, organism-based, Macaca mulatta; settings: rhesus monkey, in vivo
[4] = Volume of distribution at steady state in rat at 1 mg/kg, iv; type: ADME, organism-based; settings: in vivo, read-out: Vdss
[5] = Metabolic stability in rat hepatocytes in presence of NADPH; type: ADME, cell-based, Hepatocyte
[6] = Metabolic stability in monkey hepatocytes in presence of NADPH; type: ADME, cell-based, Macaca mulatta, Hepatocyte; settings: rhesus monkey
[7] = Chromatographic hydrophobicity index, log D of the compound at pH 7.4 by RP-HPLC analysis; type: physicochemical; settings: buffer
[8] = Half life in monkey at […], iv; type: ADME, organism-based, Macaca mulatta; settings: rhesus monkey, in vivo
[9] = Half life in rat at 1 mg/kg, iv; type: ADME, organism-based; settings: in vivo
[10] = AUC in rat at […], po; type: ADME, organism-based; settings: in vivo
[11] = Clearance in monkey at […], iv relative to liver blood flow; type: ADME, organism-based, Macaca mulatta; settings: rhesus monkey, in vivo
[12] = Cmax in rat at […], po; type: ADME, organism-based; set-up: dose 2.1 mg/kg, route oral; settings: in vivo
[13] = Cmax in dog at 2 mg/kg, po; type: ADME, organism-based, Canis lupus familiaris; set-up: dose 2 mg/kg, route oral; settings: in vivo
[14] = AUC (0 to infinity) in rat at 2 mg/kg, po; type: ADME, organism-based; set-up: dose 2 mg/kg, route oral, time infinity; settings: in vivo
[15] = Clearance in dog at 1.1 mg/kg, iv relative to liver blood flow; type: ADME, organism-based, Canis lupus familiaris; settings: in vivo
[16] = AUC in dog at 2 mg/kg, po; type: ADME, organism-based, Canis lupus familiaris; settings: in vivo
[17] = Clearance in rat at 1 mg/kg, iv relative to liver blood flow; type: ADME, organism-based; settings: in vivo
in vivo [18] = settings: rat, po
[19] = Volume of distribution at steady state in dog at 1.1 mg/kg, iv; type: ADME, organism-based, Canis lupus familiaris; settings: in vivo, read-out: Vdss
[20] = Clearance in dog at 1.1 mg/kg, iv; type: ADME, organism-based, Canis lupus familiaris; settings: in vivo
in vivo [21] = settings: dog, po, 2 mg/kg

Structure (SMILES): O=C(N[C@H]1CCc2cc(F)cc(F)c2NC1=O)c1n[nH]c(Cc2ccccc2)n1
- clearance [1]: 27 mL/min/kg
- Stability [2]: Stable
- AUC [3]: 4400 ng·h/mL
- Vd [4]: 1.8 L/kg
- Stability [5]: Stable
- Stability [6]: Stable
- logD [7]: 3.4
- t1/2 [8]: 252 min
- half-life [9]: 132 min
- AUC [10]: 1100 ng·h/mL
- CL [11]: 15%
- Cmax [12]: 320 ng/mL
- Cmax [13]: 910 ng/mL
- AUC(0-inf) [14]: 1100 ng·h/mL
- CL [15]: 18%
- AUC [16]: 2500 ng·h/mL
- CL [17]: 35%
- Tmax (in vivo [18]): 49.8 min
- Vd [19]: 1.1 L/kg
- clearance [20]: 9.8 mL/min/kg
- Tmax (in vivo [21]): 45 min

Structure (SMILES): O=C(N[C@H]1CCc2ccccc2NC1=O)c1n[nH]c(Cc2ccccc2)n1
- logD [7]: 3.1

- logD [7]: 5.1
Structure (SMILES): O=C(N[C@H]1COc2ccccc2NC1=O)c1cc(Cc2ccccc2)on1

Structure (SMILES): CN1C(=O)[C@@H](NC(=O)c2n[nH]c(Cc3ccccc3)n2)CCc2cc(F)cc(F)c21
- logD [7]: 4.3
- AUC(0-inf) [14]: 160 ng·h/mL

Structure (SMILES): O=C(N[C@H]1COc2ccccc2NC1=O)c1n[nH]c(Cc2ccccc2)n1
- logD [7]: 3
- AUC(0-inf) [14]: 2500 ng·h/mL

Structure (SMILES): CN1C(=O)[C@@H](NC(=O)c2n[nH]c(Cc3ccccc3)n2)CCc2ccccc21
- logD [7]: 3.8
- AUC(0-inf) [14]: 310 ng·h/mL
